Assay results as given in US20060014835A1, “Therapeutic agent for chronic obstructive pulmonary disease” (priority 2002, published 2006).

Test system: rat
Test: single oral administration toxicity to rat (minimum lethal dose)
Format: in vivo
Protocol: The toxicity of the compounds of the present invention is very low and therefore, the compounds may be considered safe for pharmaceutical use. For example, a minimum of lethal dose of N-hydroxy-5-hydroxy-2(S)-methyl-4(S) (4-phenoxybenzoyl)aminopentanamide and N-hydroxy-5-ethoxymethyloxy-2(S)-methyl-4(S)-(4-phenoxybenzoyl)aminopentanamide by single oral administration to rat was 2000 mg/kg.

Row | SMILES | minimum of lethal dose
1 | C[C@@H](C[C@@H](CO)NC(=O)c1ccc(Oc2ccccc2)cc1)C(=O)NO [Compound (1), N-hydroxy-5-hydroxy-2 (S)-methyl-4(S)-(4-phenoxybenzoyl) aminopentanamide] | 2000 mg/kg
2 | CCOCOC[C@H](C[C@H](C)C(=O)NO)NC(=O)c1ccc(Oc2ccccc2)cc1 [Compound (2), N-hydroxy 5-ethoxymethyloxy-2(S)-methyl-4(S)-(4-phenoxybenzoyl) aminopentanamide] | 2000 mg/kg
